Patent US20250325517A1, “ORAL DOSAGE FORMS OF ELRAGLUSIB” (Actuate Therapeutics, Inc., priority 2022, published 2025)
Values joined by “and” are separate entries in the source; they are usually repeats but may differ in a detail not shown here. Equal entries are not always repeated. Where two headings read alike, the source gives them in different places. Marks after values point to notes of the source that are not given here.

Assay: Phase 1 crossover PK study: oral solution fed/fasted vs IV infusion in healthy subjects
Format: in vivo, human
Description: This pharmacokinetic (PK) study in healthy subjects was conducted to characterize and compare the PK parameters in plasma following a single intravenous (IV) dose of Elraglusib Injection, Elraglusib Oral Solution after fasting, and Elraglusib Oral Solution after a high-fat meal (fed). The study was intended to assess the potential feasibility of an oral formulation of elraglusib based on systemic exposure being within the biologically active range. In clinical studies conducted to date, elraglusib Injection (10 mg/mL) is administered IV once or twice per week over multiple hours, which requires a significant amount of time and resources by both patients and site personnel. […] See Example 3 above.
The route of administration is by IV infusion after diluting elraglusib for injection with 0.9% Sodium Chloride Injection.
It is a clear, red solution, free of visible particulate matter and a low bioburden liquid dosage form that is self-preserving against microbial growth.
Subjects received a single 3.3 mg/kg dose of each of the following in a randomly assigned order separated by a 2-week period.
During the study, the high fat meal was administered over a period of under 30 minutes (in almost all cases, 28 minutes).
Elraglusib Injection (10 mg/mL) administered as an IV infusion over 60 minutes (concentration in mg/mL and infusion rate in mL/kg/hour could vary depending on the subject's body weight).
PK parameters including AUC, Cmax, Tmax, and t1/2 were analyzed by standard non-compartmental analysis (NCA) methods following each of the elraglusib doses. Log transformed Cmax and AUC parameters in subjects having adequate PK data following at least 1 of the oral and IV doses were used to assess the relative bioavailability of the oral dose (fed and/or fasted) compared to the IV dose.
All efforts were made to obtain the PK samples at the scheduled nominal times relative to dosing. PK samples were assayed using validated analytical methods.

[1] = IV infusion 3.3 mg/kg, human plasma

% extrap Arithmetic Mean [1]: 1.146% | % extrap GMean [1]: 0.7979% | % extrap Median [1]: 1.04% | AUC∞/Dose Arithmetic Mean [1]: 33.79 ng·h/mL/mg | AUC∞/Dose GMean [1]: 32.93 ng·h/mL/mg | AUC∞/Dose Median [1]: 32.7 ng·h/mL/mg | Clast Arithmetic Mean [1]: 3.045 ng/mL | Clast GMean [1]: 2.142 ng/mL | Clast Median [1]: 2.64 ng/mL | Cmax/Dose Arithmetic Mean [1]: 6.756 ng/mL/mg | Cmax/Dose GMean [1]: 6.615 ng/mL/mg | Cmax/Dose Median [1]: 7.02 ng/mL/mg | R^2 Arithmetic Mean [1]: 0.9904 # | R^2 GMean [1]: 0.9903 # | R^2 Median [1]: 0.9964 # | λZ Arithmetic Mean [1]: 0.0397 h⁻¹ | λZ GMean [1]: 0.0372 h⁻¹ | λZ Median [1]: 0.0346 h⁻¹ | oral bioavailability vs IV, geometric means of AUClast or AUC∞ (human, fasted state): 14-21% | oral bioavailability vs IV, geometric means of Cmax (human, fasted state): 5-11% | half-life (human, plasma, 3.3 mg/kg, human, read-out: terminal elimination half-life, rapid clearance subset of subjects): 7 to 11 h | clearance (human, plasma, iv, 3.3 mg/kg, IV infusion): 7.11 mL/min/kg and 519 mL/min | AUC (human, plasma, iv, 3.3 mg/kg, IV infusion 3.3 mg/kg, human plasma, read-out: AUC24 Arithmetic Mean): 6850 ng·h/mL | AUC (human, plasma, iv, 3.3 mg/kg, IV infusion 3.3 mg/kg, human plasma, read-out: AUC24 GMean): 6730 ng·h/mL | AUC (human, plasma, iv, 3.3 mg/kg, IV infusion 3.3 mg/kg, human plasma, read-out: AUC24 Median): 7200 ng·h/mL | AUC (human, plasma, iv, 3.3 mg/kg, IV infusion 3.3 mg/kg, human plasma, read-out: AUC48 Arithmetic Mean): 7590 ng·h/mL | AUC (human, plasma, iv, 3.3 mg/kg, IV infusion 3.3 mg/kg, human plasma, read-out: AUC48 GMean): 7450 ng·h/mL | AUC (human, plasma, iv, 3.3 mg/kg, IV infusion 3.3 mg/kg, human plasma, read-out: AUC48 Median): 7980 ng·h/mL | AUC (human, plasma, iv, 3.3 mg/kg, IV infusion 3.3 mg/kg, human plasma, read-out: AUC72 Arithmetic Mean): 7840 ng·h/mL | AUC (human, plasma, iv, 3.3 mg/kg, IV infusion 3.3 mg/kg, human plasma, read-out: AUC72 GMean): 7690 ng·h/mL | AUC (human, plasma, iv, 3.3 mg/kg, IV infusion 3.3 mg/kg, human plasma, read-out: AUC72 Median): 8190 ng·h/mL | AUC (human, plasma, iv, 3.3 mg/kg, IV infusion 3.3 mg/kg, human plasma, read-out: AUC96 Arithmetic Mean): 7980 ng·h/mL | AUC (human, plasma, iv, 3.3 mg/kg, IV infusion 3.3 mg/kg, human plasma, read-out: AUC96 GMean): 7810 ng·h/mL | AUC (human, plasma, iv, 3.3 mg/kg, IV infusion 3.3 mg/kg, human plasma, read-out: AUC96 Median): 8250 ng·h/mL | AUC(0-t) (human, plasma, iv, 3.3 mg/kg, IV infusion 3.3 mg/kg, human plasma, read-out: AUClast Arithmetic Mean): 7970 ng·h/mL | AUC(0-t) (human, plasma, iv, 3.3 mg/kg, IV infusion 3.3 mg/kg, human plasma, read-out: AUClast GMean): 7810 ng·h/mL | AUC(0-t) (human, plasma, iv, 3.3 mg/kg, IV infusion 3.3 mg/kg, human plasma, read-out: AUClast Median): 8250 ng·h/mL | AUC(0-inf) (human, plasma, iv, 3.3 mg/kg, IV infusion 3.3 mg/kg, human plasma, read-out: AUC∞ Arithmetic Mean): 8070 ng·h/mL | AUC(0-inf) (human, plasma, iv, 3.3 mg/kg, IV infusion 3.3 mg/kg, human plasma, read-out: AUC∞ GMean): 7900 ng·h/mL | AUC(0-inf) (human, plasma, iv, 3.3 mg/kg, IV infusion 3.3 mg/kg, human plasma, read-out: AUC∞ Median): 8260 ng·h/mL | Cmax (human, plasma, iv, 3.3 mg/kg, IV infusion 3.3 mg/kg, human plasma, read-out: Cmax Arithmetic Mean): 1600 ng/mL | Cmax (human, plasma, iv, 3.3 mg/kg, IV infusion 3.3 mg/kg, human plasma, read-out: Cmax GMean): 1590 ng/mL | Cmax (human, plasma, iv, 3.3 mg/kg, IV infusion 3.3 mg/kg, human plasma, read-out: Cmax Median): 1570 ng/mL | Tmax (human, plasma, iv, 3.3 mg/kg, IV infusion 3.3 mg/kg, human plasma, read-out: Tmax Arithmetic Mean): 1.22 h | Tmax (human, plasma, iv, 3.3 mg/kg, IV infusion 3.3 mg/kg, human plasma, read-out: Tmax GMean): 1.13 h | Tmax (human, plasma, iv, 3.3 mg/kg, IV infusion 3.3 mg/kg, human plasma, read-out: Tmax Median): 1.32 h | half-life (human, plasma, iv, 3.3 mg/kg, IV infusion 3.3 mg/kg, human plasma, read-out: t1/2 Arithmetic Mean (converted)): 19.6 h | half-life (human, plasma, iv, 3.3 mg/kg, IV infusion 3.3 mg/kg, human plasma, read-out: t1/2 GMean (converted)): 18.6 h | half-life (human, plasma, iv, 3.3 mg/kg, IV infusion 3.3 mg/kg, human plasma, read-out: t1/2 Median (converted)): 20.1 h | AUC(0-t) (human, plasma, iv, 3.3 mg/kg, IV infusion 3.3 mg/kg, read-out: AUClast LS Means): 7810 ng·h/mL | AUC(0-inf) (human, plasma, iv, 3.3 mg/kg, IV infusion 3.3 mg/kg, read-out: AUC∞ LS Means): 7900 ng·h/mL | Cmax (human, plasma, iv, 3.3 mg/kg, IV infusion 3.3 mg/kg, read-out: Cmax LS Means): 1590 ng/mL | Cmax (human, plasma, iv, 3.3 mg/kg, human, 3.3 mg/kg IV infusion, read-out: mean Cmax (arithmetic mean)): 1600 ng/mL | AUC(0-inf) (human, plasma, iv, 3.3 mg/kg, human, 3.3 mg/kg IV, read-out: mean AUC∞): 8070 ng·h/mL | Vd (human, plasma, iv, 3.3 mg/kg, human, IV infusion, read-out: volume of distribution): 11.2 L/kg and 822 L | half-life (human, plasma, other: IV or oral, 3.3 mg/kg, human, read-out: terminal elimination half-life, rapid clearance subset of subjects): 6 to 11 h | half-life (human, plasma, other: oral solution (fed and fasted) and IV infusion, 3.3 mg/kg, human, all 3 treatments, read-out: terminal elimination half-life, majority of subjects): 15 to 25 h | half-life (human, plasma, other: oral solution (fed and fasted) and IV infusion, 3.3 mg/kg, human, all three treatments, read-out: mean terminal elimination half-life): 16 to 21 h | Cmax (human, plasma, po, 3.3 mg/kg, human, 3.3 mg/kg oral solution, fasted state, read-out: mean Cmax (arithmetic mean)): 172 ng/mL | Cmax (human, plasma, po, 3.3 mg/kg, human, 3.3 mg/kg oral solution, fed state, read-out: mean Cmax (arithmetic mean)): 592 ng/mL | AUC(0-inf) (human, plasma, po, 3.3 mg/kg, human, 3.3 mg/kg oral, fasted state, read-out: mean AUC∞): 1810 ng·h/mL | AUC(0-inf) (human, plasma, po, 3.3 mg/kg, human, 3.3 mg/kg oral, fed state, read-out: mean AUC∞): 5000 ng·h/mL | bioavailability (human, plasma, po, 3.3 mg/kg, human, 3.3 mg/kg, fasted state (Cmax and AUC based), read-out: oral bioavailability): 5 to 21% | bioavailability (human, plasma, po, 3.3 mg/kg, human, 3.3 mg/kg, fed state (Cmax and AUC based), read-out: oral bioavailability): 19 to 63% | half-life (human, plasma, po, 3.3 mg/kg, human, subject 113, oral fed state, read-out: longest terminal half-life (converted)): 50.5 h | half-life (human, plasma, po, 3.3 mg/kg, human, subject 118, oral fasted state, read-out: shortest half-life (converted)): 6.92 h | bioavailability (human, plasma, po, 3.3 mg/kg, human, read-out: relative bioavailability following oral dosing in the fed state, one subject (105)): 91% | AUC (human, plasma, po, 3.3 mg/kg, oral 3.3 mg/kg fasted state, human plasma, read-out: AUC24 Arithmetic Mean): 1230 ng·h/mL | AUC (human, plasma, po, 3.3 mg/kg, oral 3.3 mg/kg fasted state, human plasma, read-out: AUC24 GMean): 1010 ng·h/mL | AUC (human, plasma, po, 3.3 mg/kg, oral 3.3 mg/kg fasted state, human plasma, read-out: AUC24 Median): 1070 ng·h/mL | AUC (human, plasma, po, 3.3 mg/kg, oral 3.3 mg/kg fasted state, human plasma, read-out: AUC48 Arithmetic Mean): 1620 ng·h/mL | AUC (human, plasma, po, 3.3 mg/kg, oral 3.3 mg/kg fasted state, human plasma, read-out: AUC48 GMean): 1340 ng·h/mL | AUC (human, plasma, po, 3.3 mg/kg, oral 3.3 mg/kg fasted state, human plasma, read-out: AUC48 Median): 1420 ng·h/mL | AUC (human, plasma, po, 3.3 mg/kg, oral 3.3 mg/kg fasted state, human plasma, read-out: AUC72 Arithmetic Mean): 1740 ng·h/mL | AUC (human, plasma, po, 3.3 mg/kg, oral 3.3 mg/kg fasted state, human plasma, read-out: AUC72 GMean): 1430 ng·h/mL | AUC (human, plasma, po, 3.3 mg/kg, oral 3.3 mg/kg fasted state, human plasma, read-out: AUC72 Median): 1530 ng·h/mL | AUC (human, plasma, po, 3.3 mg/kg, oral 3.3 mg/kg fasted state, human plasma, read-out: AUC96 Arithmetic Mean): 1780 ng·h/mL | AUC (human, plasma, po, 3.3 mg/kg, oral 3.3 mg/kg fasted state, human plasma, read-out: AUC96 GMean): 1460 ng·h/mL | AUC (human, plasma, po, 3.3 mg/kg, oral 3.3 mg/kg fasted state, human plasma, read-out: AUC96 Median): 1560 ng·h/mL | AUC(0-t) (human, plasma, po, 3.3 mg/kg, oral 3.3 mg/kg fasted state, human plasma, read-out: AUClast Arithmetic Mean): 1780 ng·h/mL | AUC(0-t) (human, plasma, po, 3.3 mg/kg, oral 3.3 mg/kg fasted state, human plasma, read-out: AUClast GMean): 1460 ng·h/mL | AUC(0-t) (human, plasma, po, 3.3 mg/kg, oral 3.3 mg/kg fasted state, human plasma, read-out: AUClast Median): 1560 ng·h/mL | AUC(0-inf) (human, plasma, po, 3.3 mg/kg, oral 3.3 mg/kg fasted state, human plasma, read-out: AUC∞ Arithmetic Mean): 1810 ng·h/mL | AUC(0-inf) (human, plasma, po, 3.3 mg/kg, oral 3.3 mg/kg fasted state, human plasma, read-out: AUC∞ GMean): 1480 ng·h/mL | AUC(0-inf) (human, plasma, po, 3.3 mg/kg, oral 3.3 mg/kg fasted state, human plasma, read-out: AUC∞ Median): 1590 ng·h/mL | CL/F (human, plasma, po, 3.3 mg/kg, oral 3.3 mg/kg fasted state, human plasma, read-out: CL Median (converted)): 34.5 mL/min/kg | Cmax (human, plasma, po, 3.3 mg/kg, oral 3.3 mg/kg fasted state, human plasma, read-out: Cmax Arithmetic Mean): 172 ng/mL | Cmax (human, plasma, po, 3.3 mg/kg, oral 3.3 mg/kg fasted state, human plasma, read-out: Cmax GMean): 133 ng/mL | Cmax (human, plasma, po, 3.3 mg/kg, oral 3.3 mg/kg fasted state, human plasma, read-out: Cmax Median): 169 ng/mL | Tmax (human, plasma, po, 3.3 mg/kg, oral 3.3 mg/kg fasted state, human plasma, read-out: Tmax Arithmetic Mean): 2.7 h | Tmax (human, plasma, po, 3.3 mg/kg, oral 3.3 mg/kg fasted state, human plasma, read-out: Tmax GMean): 2.42 h
Structure (SMILES): Cn1cc(C2=C(c3coc4ccc(F)cc34)C(=O)NC2=O)c2cc3c(cc21)OCO3 [elraglusib, 3-(5-fluorobenzofuran-3-yl)-4-(5-methyl-5H-[1,3]dioxolo[4,5-f]indol-7-yl)-1H-pyrrole-2,5-dione]
